Here are results for two compounds from publication PMC9413440, “An Iterative Approach Guides Discovery of the FabI Inhibitor Fabimycin, a Late-Stage Antibiotic Candidate with In Vivo Efficacy against Drug-Resistant Gram-Negative Infections” (ACS Central Science, 2022).

The nature of one data set: Aqueous solubility. Type of data set: physicochemical.
A further data set concerns the target T1, E. coli FabI (Escherichia coli, UniProt P0AEK4).
T1 construct: His(6) with TEV site (cleaved yes); made in house; host or cells: E. coli BL21(DE3)
Nature of the data set: In vitro FabI enzymatic inhibition assay. Particulars: EcFabI; Morrison's quadratic fit; 5 nM enzyme; read-out: Ki app. Type of data set: biochemical. On the procedure: (§1) supplemented with 100 µg/mL ampicillin at 37°C until OD600 reached 0.6-0.7. The cells were induced with 1mM IPTG and incubated for 20 hours at 18°C and spun down at 8000 rpm for 15 minutes. Cell pellet was resuspended in the lysis buffer (50 mM Tris-HCl pH 8.0, 500 mM Na Cl, 20 mM imidazole, 10% glycerol, 0.5 mM TCEP, protease inhibitor and Lysonase) and passed through microfluidizer followed by centrifugation and filtration to remove cell debris. The clarified lysate was supplemented with 20 mM imidazole and passed over a HisTrap column (Cytiva) pre-equilibrated with the wash buffer (50 mM Tris-HCl pH 8.0, 500 mM NaCl, 20 mM imidazole, 10% glycerol, 0.5 mM TCEP). The column was washed with the wash buffer and eluted over a 20-500 mM imidazole gradient. The appropriate fractions were pooled, and the histidine tag was removed by TEV cleavage. The protein mixture was passed over a HisTrap column to separate the cleaved protein from the uncleaved ones. The cleaved protein was pooled and passed over an S75 size exclusion column (GE LifeSciences) pre-equilibrated with 50 mM Tris-HCl pH 8.0, 500 mM NaCl, 0.5 mM TCEP and 10% glycerol. Fractions containing pure protein were pooled, concentrated at 10 mg/mL and stored at -80°C. […]
(§2) In vitro FabI enzymatic inhibition assay
(§3) Recombinant E. coli and A. baummani FabI enzymes were used in a continuous NADH absorbance assay (20 µL in 384w format). Compounds and the Crotonyl-CoA substrate (Sigma–Aldrich 28007) were dispensed into a plate (GeinerBio-One 781101). The reaction was initiated by the addition of a reaction master mix solution containing enzyme and NADH (Sigma–Aldrich N8129) suspended in reaction buffer (50 mM HEPES pH 7.4, 150 mM NaCl, 1 mM EDTA, 0.01 mg/mL BSA, 0.01% Tween). Final concentrations were 5 nM enzyme, 150 μM Crotonyl-CoA, 380 μM NADH, 0.05% DMSO in 1x reaction buffer. After shaking for 5 seconds the reaction was monitored at NADH absorbance (340nm, 25°C) using a Molecular Devices SpectraMax M5 microplate reader. The linear portion of the progress curve was fit using plate-reader software. Percentage activity was calculated relative to DMSO only and no-substrate controls in each plate and the data were fit to Morrison’s quadratic using Graphpad Prism 9.3 to obtain apparent inhibition constant (Ki app) values. […]
(§4) 480 Real-Time PCR System as a function of a temperature ramp (25-95°C; 0.1°/s) and the Tm was calculated using the […]

A further data set has as its target A. baumannii FabI (Acinetobacter baumannii, UniProt D0CAD5). The data set can be described thus: In vitro FabI enzymatic inhibition assay. Format: biochemical. Particulars: AbFabI; Morrison's quadratic fit; 5 nM enzyme; read-out: Ki app. On the procedure: as §1, §2, §3, §4
The next data set concerns K. pneumoniae AR-0113. Nature of the data set: MIC, broth microdilution (CLSI). Format: cell-based. The note with it: Klebsiella pneumoniae, AR0113; K. pneumoniae AR-0113 clinical isolate. On the procedure:
(§5) II. Materials and Methods for Biological Experiments
(§6) S. aureus ATCC 29213 and E. coli MG1655 were obtained from the American Type Culture Collection (ATCC). E. coli BW25113 and E. coli JW5503 were obtained from the Keio Collection. AR-bank strains were obtained from the Centers for Disease Control and Prevention and FDA Antibiotic Resistance Isolate Bank.
(§7) Antimicrobial susceptibility tests
(§8) Susceptibility testing was performed in biological triplicate, unless noted otherwise, using the micro-dilution broth method as outlined by the Clinical and Laboratory Standards Institute. Bacteria were cultured with cation-adjusted Mueller Hinton broth (Sigma Aldrich, catalogue number: 90922). […]
(§9) Error bars represent the standard error of the mean of three biological replicates. All compounds evaluated in biological assays were ≥95% pure.

The next data set deals with A. baumannii AR-0313. Nature of the data set: MIC, broth microdilution (CLSI). Type of data set: cell-based. Particulars: Acinetobacter baumannii, AR0313; A. baumannii AR-0313 clinical isolate; † = dose-independent trailing growth. On the procedure: as §5, §6, §7, §8, §9
A further data set relates to E. coli ΔtolC (JW5503). The data set can be described thus: MIC, broth microdilution (CLSI). Type of data set: cell-based, Escherichia coli. On the procedure:
as §5, §6, §7, §8
(§10) NH3: m/z 391.2 → 171.0. Fabimycin: m/z 405.3 → 145.3. Power analysis was not used to determine the number of replicates. Error bars represent the standard error of the mean of three biological replicates. All compounds evaluated in biological assays were ≥95% pure.

The next data set relates to K. pneumoniae AR-0066. Nature of the data set: MIC, broth microdilution (CLSI). Particulars: Klebsiella pneumoniae, AR0066; K. pneumoniae AR-0066 clinical isolate. Format: cell-based. On the procedure:
as §5, §6, §7, §8, §10

The next data set deals with A. baumannii AR-0033. The data set can be described thus: MIC, broth microdilution (CLSI). Format: cell-based. Particulars: Acinetobacter baumannii, AR0033; A. baumannii AR-0033 clinical isolate; † = dose-independent trailing growth. On the procedure:
as §5, §6, §7, §8, §10

In the next data set the test system is A. baumannii AR-0273. Nature of the data set: MIC, broth microdilution (CLSI). Format: cell-based. Particulars: Acinetobacter baumannii, AR0273; A. baumannii AR-0273 clinical isolate. On the procedure:
as §5, §6, §7, §8, §10

The next data set relates to E. coli AR-0048. The data set can be described thus: MIC, broth microdilution (CLSI). Particulars: Escherichia coli, AR0048; E. coli AR-0048 clinical isolate. Type of data set: cell-based. On the procedure:
as §5, §6, §7, §8, §10

The test system of the next data set is E. coli AR-0085. The data set can be described thus: MIC, broth microdilution (CLSI). The note with it: Escherichia coli, AR0085; E. coli AR-0085 clinical isolate. Format: cell-based. On the procedure: as §5, §6, §7, §8, §10
The subject of a further data set is S. aureus ATCC 29213. The data set can be described thus: MIC, broth microdilution (CLSI). Type of data set: cell-based. The note with it: Staphylococcus aureus, ATCC29213; S. aureus 29213. On the procedure:
as §5, §6, §7, §8, §10

For another data set, the system named is K. pneumoniae BAA-2472. The data set can be described thus: MIC, broth microdilution (CLSI). Format: cell-based. The note with it: Klebsiella pneumoniae, BAA2472. On the procedure: as §5, §6, §7, §8, §10
The subject of a further data set is A. baumannii AR-0299. Nature of the data set: MIC, broth microdilution (CLSI). Format: cell-based. Particulars: Acinetobacter baumannii, AR0299; A. baumannii AR-0299 clinical isolate; † = dose-independent trailing growth. On the procedure:
as §5, §6, §7, §8, §10

The subject of data set [1] is E. coli MG1655. The data set can be described thus: MIC, broth microdilution (CLSI). Format: cell-based. The note with it: Escherichia coli. On the procedure:
as §5, §6, §7, §8, §10

The next data set concerns K. pneumoniae AR-0560. The data set can be described thus: MIC, broth microdilution (CLSI). Type of data set: cell-based. The note with it: Klebsiella pneumoniae, AR0560; K. pneumoniae AR-0560 clinical isolate. On the procedure:
as §5, §6, §7, §8, §10

On the set-up of data set [2]: method as in earlier work. The note with it: mice, 20% SBE-β-CD in H2O, IP, ref 19 (SI ref 3), cited from earlier work.
For data set [3], the system named is E. coli MG1655. Also noted: method as in PMID 31740764. Particulars: cited from earlier work.

SMILES strings stand for the structures. Converted amounts (≈) assume the structure as drawn.

T1 sequence (P0AEK4 whole entry): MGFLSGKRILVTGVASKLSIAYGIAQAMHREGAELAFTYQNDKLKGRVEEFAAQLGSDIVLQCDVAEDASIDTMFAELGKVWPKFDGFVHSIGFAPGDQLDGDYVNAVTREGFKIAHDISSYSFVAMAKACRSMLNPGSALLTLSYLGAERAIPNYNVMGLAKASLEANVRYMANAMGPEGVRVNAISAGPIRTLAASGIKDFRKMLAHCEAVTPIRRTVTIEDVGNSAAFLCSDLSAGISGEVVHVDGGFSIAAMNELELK
Sequence of A. baumannii FabI (D0CAD5 entry or part of it): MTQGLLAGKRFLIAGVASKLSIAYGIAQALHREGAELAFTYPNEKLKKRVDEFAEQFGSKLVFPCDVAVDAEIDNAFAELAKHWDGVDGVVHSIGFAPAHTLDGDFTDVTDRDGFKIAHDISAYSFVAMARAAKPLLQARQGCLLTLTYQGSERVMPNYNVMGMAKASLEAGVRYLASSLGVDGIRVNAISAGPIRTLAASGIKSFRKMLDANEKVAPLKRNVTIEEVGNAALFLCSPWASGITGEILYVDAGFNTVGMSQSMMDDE

On to `Cc1c(CN(C)C(=O)/C=C/c2cnc3c(c2)CC[C@H](NC(=O)OC(C)(C)C)C(=O)N3)oc2ccccc12` [(S)-11], for which the aqueous solubility entry in the data set “Aqueous solubility” was “limited aqueous solubility”. For the same compound, the results for the Ki at E. coli FabI and on A. baumannii FabI were 60 ± 10 nM and 947 ± 234 nM, respectively. In addition, the MIC came to 32 µg/mL (≈ 63.4 µM) against K. pneumoniae AR-0113; 64 µg/mL (≈ 127 µM) with A. baumannii AR-0313; 0.125 µg/mL (≈ 0.248 µM) in the data set on E. coli ΔtolC (JW5503) (Escherichia coli); 64 µg/mL (≈ 127 µM) with K. pneumoniae AR-0066; 64 µg/mL (≈ 127 µM) against A. baumannii AR-0033; 8 µg/mL (≈ 15.9 µM) in the data set with A. baumannii AR-0273. The MIC in the data set with E. coli AR-0048 amounted to 16 µg/mL (≈ 31.7 µM); in the data set with E. coli AR-0085, 8 µg/mL (≈ 15.9 µM); with S. aureus ATCC 29213 it was 0.016 µg/mL (≈ 0.0317 µM); in the data set with K. pneumoniae BAA-2472 it was 32 µg/mL (≈ 63.4 µM); in the data set on A. baumannii AR-0299, 8 µg/mL (≈ 15.9 µM); against E. coli MG1655 [1], 8 µg/mL (≈ 15.9 µM). Also, in the data set with K. pneumoniae AR-0560, the MIC was determined as 32 µg/mL (≈ 63.4 µM).
As for `Cc1c(CN(C)C(=O)/C=C/c2cnc3c(c2)CC(N)C(=O)N3)oc2ccccc12` (centres unmarked) [Debio-1452-NH3, reference compound], the Ki at E. coli FabI is 9 ± 1 nM; at A. baumannii FabI, 13 ± 2 nM. Besides, in data set [2] (5d), the “Multi-day QD dosing, MTD” value is 50 mg/kg. In data set [2], the “Single-dose MTD” value is listed as 50 mg/kg. Further, the MIC was found to be 32 µg/mL (≈ 82 µM) against K. pneumoniae AR-0113; 32 µg/mL (≈ 82 µM) against A. baumannii AR-0313; 0.062 µg/mL (≈ 0.159 µM) with E. coli ΔtolC (JW5503) (E. coli ΔtolC = JW5503, efflux-deficient); 32 µg/mL (≈ 82 µM) against K. pneumoniae AR-0066; 32 µg/mL (≈ 82 µM) with A. baumannii AR-0033; 32 µg/mL (≈ 82 µM) against A. baumannii AR-0273. Besides, the MIC was determined as 32 µg/mL (≈ 82 µM) against E. coli AR-0048; 16 µg/mL (≈ 41 µM) against E. coli AR-0085; 16 µg/mL (≈ 41 µM) in the data set with K. pneumoniae BAA-2472; 32 µg/mL (≈ 82 µM) against A. baumannii AR-0299; 32 µg/mL (≈ 82 µM) with K. pneumoniae AR-0560. Besides, the “accumulation in Gram-negative bacteria (class in Figure 1A)” value in the data set with E. coli MG1655 [3] is reported as “Accumulator”.
